The values below come from BindingDB's records for doi:10.1016/j.bmcl.2004.05.021 (University of Alberta, 2004).

This assay addresses Genome polyprotein 3C proteinase (Hepatitis A virus). Description: Reversible inhibitory activity against Protease.

The structures appear in SMILES notation.

In the case of `CC(=O)N[C@@H](CC(C)C)C(=O)N[C@@H](C)C(=O)N[C@@H](C)C(=O)N[C@@H](C[C@@H]1CCNC1=O)C(=O)Cn1[nH]c(=O)c2c(F)c(F)c(F)c(F)c2c1=O` [(S)-2-Acetylamino-4-methyl-pentanoic acid ((S)-1-{1-[(S)-2-oxo-1-((1S,4S)-2-oxo-pyrrolidin-3-ylmethyl)-3-(5,6,7,8-tetrafluoro-1,4-dioxo-3,4-dihydro-1H-phthalazin-2-yl)-propylcarbamoyl]-ethylcarbamoyl}-ethyl)-amide], 2000 nM corresponded to half-maximal inhibition (IC50). For `CC(=O)N[C@@H](CC(C)C)C(=O)N[C@@H](C)C(=O)N[C@@H](C)C(=O)N[C@@H](C[C@@H]1CCNC1=O)C(=O)Cn1[nH]c(=O)c2c([N+](=O)[O-])cccc2c1=O` [(S)-2-Acetylamino-4-methyl-pentanoic acid ((S)-1-{1-[(S)-3-(5-nitro-1,4-dioxo-3,4-dihydro-1H-phthalazin-2-yl)-2-oxo-1-((1S,4S)-2-oxo-pyrrolidin-3-ylmethyl)-propylcarbamoyl]-ethylcarbamoyl}-ethyl)-amide] the value was 1600 nM; for `CC(=O)N[C@@H](CC(C)C)C(=O)N[C@@H](C)C(=O)N[C@@H](C)C(=O)N[C@@H](CCC(=O)N(C)C)C(=O)Cn1[nH]c(=O)c2ccccc2c1=O` [(S)-4-{(S)-2-[(S)-2-((S)-2-Acetylamino-4-methyl-pentanoylamino)-propionylamino]-propionylamino}-6-(1,4-dioxo-3,4-dihydro-1H-phthalazin-2-yl)-5-oxo-hexanoic acid dimethylamide], 13000 nM.
